From ChEMBL document CHEMBL4507267 (2021)

Assays:
[1] = biological target: Sigma intracellular receptor 2 (Homo sapiens) (UniProt Q5BJF2); conditions: Compound concentration 10.0 uM
[2] = biological target: Serine/threonine-protein kinase DCLK2 (Homo sapiens) (UniProt Q8N568); conditions: Compound concentration 1000.0 nM
[3] = biological target: Sodium-dependent noradrenaline transporter (Homo sapiens) (UniProt P23975); conditions: Compound concentration 10.0 uM
[4] = biological target: Alpha-2B adrenergic receptor (Homo sapiens) (UniProt P18089); conditions: Compound concentration 10.0 uM
Histamine H1 receptor [5] = biological target: T1, Histamine H1 receptor (Homo sapiens, UniProt P35367); conditions: Compound concentration 10.0 uM
[6] = biological target: Phosphatidylinositol 5-phosphate 4-kinase type-2 gamma (Homo sapiens) (UniProt Q8TBX8); conditions: Compound concentration 1000.0 nM
[7] = biological target: Tyrosine-protein kinase Yes (Homo sapiens) (UniProt P07947); conditions: Compound concentration 1000.0 nM
[8] = biological target: Serine/threonine-protein kinase VRK2 (Homo sapiens) (UniProt Q86Y07); conditions: Compound concentration 1000.0 nM
[9] = biological target: RAC-alpha serine/threonine-protein kinase (Homo sapiens) (UniProt P31749); conditions: Compound concentration 1000.0 nM
[10] = biological target: RAC-beta serine/threonine-protein kinase (Homo sapiens) (UniProt P31751); conditions: Compound concentration 1000.0 nM
[11] = biological target: Non-receptor tyrosine-protein kinase TYK2 (Homo sapiens) (UniProt P29597); conditions: Compound concentration 1000.0 nM
[12] = biological target: Receptor-interacting serine/threonine-protein kinase 2 (Homo sapiens) (UniProt O43353); conditions: Compound concentration 1000.0 nM
[13] = biological target: Delta-type opioid receptor (Homo sapiens) (UniProt P41143); conditions: Compound concentration 10.0 uM
[14] = biological target: Solute carrier family 2, facilitated glucose transporter member 2 (Homo sapiens, UniProt P11168); assay: Cell-based assay with CellTiter-Glo readout for ATP production with SLC2A2
[15] = biological target: D(1A) dopamine receptor (Homo sapiens) (UniProt P21728); conditions: Compound concentration 10.0 uM
[16] = biological target: Ephrin type-A receptor 1 (Homo sapiens) (UniProt P21709); conditions: Compound concentration 1000.0 nM
[17] = biological target: cAMP-dependent protein kinase catalytic subunit PRKX (Homo sapiens) (UniProt P51817); conditions: Compound concentration 1000.0 nM
[18] = biological target: Serine/threonine-protein kinase BRSK1 (Homo sapiens) (UniProt Q8TDC3); conditions: Compound concentration 1000.0 nM
[19] = biological target: cAMP-dependent protein kinase catalytic subunit alpha (Homo sapiens) (UniProt P17612); conditions: Compound concentration 1000.0 nM
Histamine H2 receptor = Histamine H2 receptor (Homo sapiens, UniProt P25021); assay: GPCRScan assay: inhibition of H2; parameters: radioligand conc. used [nm] 0.02 – 0.05, parental cells Stable HEK
[20] = biological target: Solute carrier family 2, facilitated glucose transporter member 4 (Homo sapiens, UniProt P14672); assay: Cell-based assay with CellTiter-Glo readout for ATP production with SLC2A4
Rattus norvegicus = organism: Rattus norvegicus; conditions: Compound concentration 10.0 uM
Histamine H1 receptor [21] = biological target: T1, Histamine H1 receptor; assay: GPCRScan assay: inhibition of H1; parameters: radioligand conc. used [nm] 0.6 – 2.0, parental cells stable HEK
[22] = biological target: 5-hydroxytryptamine receptor 7 (Homo sapiens) (UniProt P34969); conditions: Compound concentration 10.0 uM

Chain of Phosphatidylinositol 5-phosphate 4-kinase type-2 gamma (Homo sapiens) (Q8TBX8 whole entry): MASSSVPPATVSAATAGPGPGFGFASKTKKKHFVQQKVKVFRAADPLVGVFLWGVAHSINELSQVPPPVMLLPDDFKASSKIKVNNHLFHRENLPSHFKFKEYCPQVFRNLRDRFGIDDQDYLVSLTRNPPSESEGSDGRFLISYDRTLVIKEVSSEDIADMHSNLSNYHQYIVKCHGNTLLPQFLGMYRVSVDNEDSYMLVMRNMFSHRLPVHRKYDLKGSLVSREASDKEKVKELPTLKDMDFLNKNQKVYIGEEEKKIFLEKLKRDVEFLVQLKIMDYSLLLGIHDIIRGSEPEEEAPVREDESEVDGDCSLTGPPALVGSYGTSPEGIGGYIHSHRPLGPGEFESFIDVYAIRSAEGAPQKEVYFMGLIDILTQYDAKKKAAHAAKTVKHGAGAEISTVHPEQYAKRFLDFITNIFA
T1 sequence (P35367 whole entry): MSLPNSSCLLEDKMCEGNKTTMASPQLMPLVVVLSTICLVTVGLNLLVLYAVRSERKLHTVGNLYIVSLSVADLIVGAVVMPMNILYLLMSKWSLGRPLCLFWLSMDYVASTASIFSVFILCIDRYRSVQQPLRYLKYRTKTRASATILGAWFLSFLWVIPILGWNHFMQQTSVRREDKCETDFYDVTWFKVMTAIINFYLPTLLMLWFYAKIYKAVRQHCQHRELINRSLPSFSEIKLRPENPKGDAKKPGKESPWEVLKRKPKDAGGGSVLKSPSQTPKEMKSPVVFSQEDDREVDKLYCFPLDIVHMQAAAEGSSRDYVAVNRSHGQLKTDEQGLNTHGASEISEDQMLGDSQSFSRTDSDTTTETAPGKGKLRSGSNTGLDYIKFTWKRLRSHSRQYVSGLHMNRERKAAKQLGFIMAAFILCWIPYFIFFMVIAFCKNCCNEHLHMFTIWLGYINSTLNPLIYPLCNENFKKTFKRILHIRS
Chain of Serine/threonine-protein kinase DCLK2 (Homo sapiens) (Q8N568 whole entry): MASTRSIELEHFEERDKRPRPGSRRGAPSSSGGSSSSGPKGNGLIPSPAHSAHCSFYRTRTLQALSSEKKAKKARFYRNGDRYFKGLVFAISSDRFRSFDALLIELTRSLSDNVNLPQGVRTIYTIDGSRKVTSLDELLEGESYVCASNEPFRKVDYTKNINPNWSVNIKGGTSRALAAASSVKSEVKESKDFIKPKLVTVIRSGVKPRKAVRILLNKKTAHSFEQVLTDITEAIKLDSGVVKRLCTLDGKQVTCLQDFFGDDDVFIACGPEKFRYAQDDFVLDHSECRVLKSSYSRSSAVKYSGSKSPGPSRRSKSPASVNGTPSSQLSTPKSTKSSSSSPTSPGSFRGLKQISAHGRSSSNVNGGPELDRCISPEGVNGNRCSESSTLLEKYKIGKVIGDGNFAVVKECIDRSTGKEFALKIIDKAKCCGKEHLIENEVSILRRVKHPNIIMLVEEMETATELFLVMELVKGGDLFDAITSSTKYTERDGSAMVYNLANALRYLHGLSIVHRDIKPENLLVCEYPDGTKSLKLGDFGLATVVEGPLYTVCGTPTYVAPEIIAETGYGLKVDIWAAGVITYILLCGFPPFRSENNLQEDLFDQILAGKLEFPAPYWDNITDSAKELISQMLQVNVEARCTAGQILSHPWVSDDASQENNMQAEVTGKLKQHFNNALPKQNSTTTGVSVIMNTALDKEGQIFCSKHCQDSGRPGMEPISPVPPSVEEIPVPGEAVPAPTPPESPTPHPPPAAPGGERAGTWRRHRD
Chain of RAC-alpha serine/threonine-protein kinase (Homo sapiens) (P31749 whole entry): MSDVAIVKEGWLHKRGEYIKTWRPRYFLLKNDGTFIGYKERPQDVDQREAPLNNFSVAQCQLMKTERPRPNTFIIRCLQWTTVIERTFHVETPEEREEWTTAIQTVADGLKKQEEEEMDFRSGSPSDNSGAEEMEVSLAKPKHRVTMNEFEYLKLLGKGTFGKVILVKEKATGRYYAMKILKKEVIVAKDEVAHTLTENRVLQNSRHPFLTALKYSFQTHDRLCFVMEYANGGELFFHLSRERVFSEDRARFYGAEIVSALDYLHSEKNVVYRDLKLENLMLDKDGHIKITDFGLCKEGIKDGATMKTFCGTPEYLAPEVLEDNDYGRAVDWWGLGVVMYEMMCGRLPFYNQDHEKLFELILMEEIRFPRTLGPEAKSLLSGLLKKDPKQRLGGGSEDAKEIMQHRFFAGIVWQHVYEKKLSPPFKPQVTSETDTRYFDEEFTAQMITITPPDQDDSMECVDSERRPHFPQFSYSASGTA
Chain of cAMP-dependent protein kinase catalytic subunit PRKX (Homo sapiens) (P51817 whole entry): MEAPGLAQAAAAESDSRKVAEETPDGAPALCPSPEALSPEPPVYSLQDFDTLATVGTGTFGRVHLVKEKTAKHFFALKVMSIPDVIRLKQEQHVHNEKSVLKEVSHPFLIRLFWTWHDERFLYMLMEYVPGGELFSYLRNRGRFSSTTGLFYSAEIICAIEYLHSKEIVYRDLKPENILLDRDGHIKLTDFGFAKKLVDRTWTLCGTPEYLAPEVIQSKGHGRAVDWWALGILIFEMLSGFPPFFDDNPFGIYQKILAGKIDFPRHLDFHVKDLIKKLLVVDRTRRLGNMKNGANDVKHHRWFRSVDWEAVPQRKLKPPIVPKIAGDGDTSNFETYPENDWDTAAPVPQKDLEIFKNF
Chain of Serine/threonine-protein kinase VRK2 (Homo sapiens) (Q86Y07 whole entry): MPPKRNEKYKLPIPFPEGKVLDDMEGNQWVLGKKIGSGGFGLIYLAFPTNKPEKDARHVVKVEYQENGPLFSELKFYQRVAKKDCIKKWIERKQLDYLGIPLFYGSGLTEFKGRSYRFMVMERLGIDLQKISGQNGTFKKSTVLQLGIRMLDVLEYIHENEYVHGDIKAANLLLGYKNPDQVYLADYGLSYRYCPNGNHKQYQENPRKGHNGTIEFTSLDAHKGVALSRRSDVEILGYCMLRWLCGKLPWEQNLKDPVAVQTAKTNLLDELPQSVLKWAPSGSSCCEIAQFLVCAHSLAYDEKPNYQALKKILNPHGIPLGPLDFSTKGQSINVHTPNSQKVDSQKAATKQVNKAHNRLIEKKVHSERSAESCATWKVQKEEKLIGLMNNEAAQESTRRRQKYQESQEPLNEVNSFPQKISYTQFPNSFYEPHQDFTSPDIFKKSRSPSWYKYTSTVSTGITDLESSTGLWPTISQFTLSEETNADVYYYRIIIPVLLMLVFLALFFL
Chain of Tyrosine-protein kinase Yes (Homo sapiens) (P07947 2-543 limits assumed): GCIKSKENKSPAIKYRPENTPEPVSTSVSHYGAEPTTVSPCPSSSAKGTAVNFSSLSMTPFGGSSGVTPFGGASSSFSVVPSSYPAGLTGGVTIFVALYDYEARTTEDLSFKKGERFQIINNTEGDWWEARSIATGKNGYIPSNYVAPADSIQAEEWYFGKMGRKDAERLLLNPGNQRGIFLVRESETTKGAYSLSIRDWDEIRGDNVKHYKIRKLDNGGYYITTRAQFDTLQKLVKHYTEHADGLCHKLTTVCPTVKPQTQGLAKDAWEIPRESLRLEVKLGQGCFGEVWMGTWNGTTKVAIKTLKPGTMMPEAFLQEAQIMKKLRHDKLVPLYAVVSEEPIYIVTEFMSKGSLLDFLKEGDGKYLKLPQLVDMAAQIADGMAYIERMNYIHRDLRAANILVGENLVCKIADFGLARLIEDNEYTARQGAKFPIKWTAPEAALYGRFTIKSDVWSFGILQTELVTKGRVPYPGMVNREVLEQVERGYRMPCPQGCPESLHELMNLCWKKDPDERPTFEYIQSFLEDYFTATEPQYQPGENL
Chain of Receptor-interacting serine/threonine-protein kinase 2 (Homo sapiens) (O43353 whole entry): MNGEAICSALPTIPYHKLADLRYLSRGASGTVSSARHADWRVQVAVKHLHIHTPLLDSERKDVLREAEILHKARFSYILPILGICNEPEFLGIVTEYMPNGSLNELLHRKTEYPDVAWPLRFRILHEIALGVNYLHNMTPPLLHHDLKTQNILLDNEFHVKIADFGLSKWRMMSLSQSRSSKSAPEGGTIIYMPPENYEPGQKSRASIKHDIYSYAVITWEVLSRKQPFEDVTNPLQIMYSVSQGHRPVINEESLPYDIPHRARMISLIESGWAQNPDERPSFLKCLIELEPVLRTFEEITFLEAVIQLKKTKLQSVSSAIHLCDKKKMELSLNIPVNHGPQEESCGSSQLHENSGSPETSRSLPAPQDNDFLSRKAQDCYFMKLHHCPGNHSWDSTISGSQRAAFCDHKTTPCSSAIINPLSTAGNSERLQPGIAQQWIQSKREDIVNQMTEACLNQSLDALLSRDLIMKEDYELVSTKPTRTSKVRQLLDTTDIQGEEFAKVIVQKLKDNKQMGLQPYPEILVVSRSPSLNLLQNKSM
Chain of Serine/threonine-protein kinase BRSK1 (Homo sapiens) (Q8TDC3 whole entry): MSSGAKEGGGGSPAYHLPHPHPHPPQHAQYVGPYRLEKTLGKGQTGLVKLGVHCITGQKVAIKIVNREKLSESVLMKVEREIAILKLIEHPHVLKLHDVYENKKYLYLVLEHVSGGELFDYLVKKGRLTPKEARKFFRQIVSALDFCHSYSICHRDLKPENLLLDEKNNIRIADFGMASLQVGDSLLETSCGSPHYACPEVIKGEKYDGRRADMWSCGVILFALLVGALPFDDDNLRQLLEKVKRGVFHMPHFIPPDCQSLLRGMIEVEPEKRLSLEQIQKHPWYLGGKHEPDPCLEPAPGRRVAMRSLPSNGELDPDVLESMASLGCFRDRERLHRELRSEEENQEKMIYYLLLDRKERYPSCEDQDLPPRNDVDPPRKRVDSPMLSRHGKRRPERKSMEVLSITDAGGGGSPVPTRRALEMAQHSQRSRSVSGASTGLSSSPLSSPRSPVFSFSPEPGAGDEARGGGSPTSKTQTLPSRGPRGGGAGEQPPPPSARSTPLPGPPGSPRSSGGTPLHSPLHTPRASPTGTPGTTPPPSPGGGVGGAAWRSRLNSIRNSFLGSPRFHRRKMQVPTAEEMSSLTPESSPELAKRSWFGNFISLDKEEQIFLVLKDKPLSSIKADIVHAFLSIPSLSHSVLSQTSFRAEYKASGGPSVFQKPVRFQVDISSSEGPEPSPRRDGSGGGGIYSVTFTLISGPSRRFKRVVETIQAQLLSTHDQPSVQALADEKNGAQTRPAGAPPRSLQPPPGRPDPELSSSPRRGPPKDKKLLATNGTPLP

`Cc1c(NC(=O)c2cc(C(N)=O)nc3cc(F)ccc23)c(C(F)(F)F)nn1Cc1ccc(C(C)(C)C)cc1` [BAY-588] was tested, and the inhibition [1] was 40.7%, the residual activity [2] was 83% and the inhibition [3] was -4.06%. For the same molecule, the inhibition [4] was 15.6%, the inhibition (Histamine H1 receptor [5]) was 46.1% and the residual activity [6] was 76%. The residual activity [7] was 100%, the residual activity [8] was 95% and the residual activity [9] was 93%. The residual activity [10] was 98%, the residual activity [11] was 100% and the residual activity [12] was 93%. For the same molecule, the inhibition [13] was -9.45%, the IC50 [14] was > 10 µM (not active) and the inhibition [15] was 3.41%. The residual activity [16] was 96%, the residual activity [17] was 94% and the residual activity [18] was 100%. The residual activity [19] was 87%.

Work on `Cc1c(NC(=O)c2cc(C(N)=O)nc3cc(F)ccc23)c(C(F)(F)F)nn1Cc1ccc(C#N)cc1` [BAY-876] yielded a residual activity [2] of 82%, an inhibition [4] of 7.66% and a Ki (Histamine H2 receptor) of 8.08 µM. For the same molecule, the residual activity [6] was 100%, the residual activity [7] was 66% and the IC50 [20] was 0.27 µM (not active). The residual activity [8] was 72%, the residual activity [9] was 91% and the inhibition (Rattus norvegicus) was -1.8%. The Ki (Histamine H1 receptor [21]) was 10 µM, the residual activity [10] was 98% and the residual activity [11] was 77%. It also gave a residual activity [12] of 100%, a residual activity [16] of 74% and an inhibition [22] of 2.31%. The residual activity [17] was 92%, the residual activity [18] was 100% and the residual activity [19] was 78%.
